Source: patent US20040038947A1, “Method of treating ischemia/reperfusion injury with nitroxyl donors” (The Gov. of the U.S. of America as represented by the Sec. …, priority 2002, published 2004)

Columns and labels:
Isolated rat hearts = assay: Myocardial injury: LDH release in coronary effluent during reperfusion; details: pre-treatment; control 686±14 U/g wet wt; FIG. 4A
Description: Experimental Protocols. Hearts were allowed to stabilize for 30 min, and baseline parameters were recorded. Typically, coronary flow was adjusted within the first 10 min and kept constant from thereon. After 30 min stabilization, hearts were randomly assigned to one of the treatment groups reported below (n=12 in each group), and then subjected to 30 min global, no-flow ischemia, followed by 30 min of reperfusion (I/R) (see FIG. 1). Pacing of the hearts was stopped at the beginning of the ischemic period and restarted after the third minute of reperfusion.
Hearts in the control group (Group 1) were perfused with buffer for an additional 29 min after stabilization. Group 2 hearts were exposed to AS (1 μM final concentration) for 19 min followed by a 10 min buffer wash-out period. Group 3 hearts were exposed to DEA/NO (0.5 μM final concentration) administered in the same manner as AS. The concentration of DEA/NO was only one half of that of AS since DEA/NO releases up to two moles of […] per mole of donor molecule. […]
Assessment of myocardial injury. […] LDH release was measured as previously described by Bergmeyer & Bernt, “Methods of Enzymatic Analysis,” Verlag Chemie (1974). Data are expressed as cumulative values for the entire reflow period.

Nitroxyl donation pH = type: physicochemical; details: donates from this pH to about 10
Text: “Nitroxyl donation pH” is the pH at which and above which a nitroxyl-donating compound donates nitroxyl.
Further, compounds are easily tested for nitroxyl donation with routine experiments. Although it is impractical to directly measure whether nitroxyl is donated, several tests are accepted for determining whether a compound donates nitroxyl. For example, the compound of interest can be placed in solution, for example in water, in a sealed container. After sufficient time for disassociation has elapsed, such as from several minutes to several hours, the headspace gas is withdrawn and analyzed to determine its composition, such as by gas chromatography and/or mass spectroscopy. […] Nitroxyl donation also can be detected by exposing the target donor to metmyoglobin (Mb^3+). Nitroxyl reacts with Mb^3+ to form an Mb^2+-NO complex, which can be detected by changes in the ultraviolet/visible spectrum or by Electron Paramagnetic Resonance (EPR). […]
Testing for nitroxyl donation in some cases is performed at a range of pHs to determine the nitroxyl donation pH of the nitroxyl-donating compound. […] After the lowest pH at which nitroxyl donation occurs in a first set of tests is found, additional tests can be performed with narrower ranges of pH around the first determined nitroxyl donation pH to obtain a more specific nitroxyl donation pH. […]

rat renal tissue = details: administered during ischemia and 5 minutes before reperfusion; rat kidney; cited from earlier work

[Na+].[Na+].[O-][N+]([O-])=NO [AS, sodium trioxodinitrate]
LDH release into the coronary venous effluent during reperfusion (Isolated rat hearts): significantly reduced
Nitroxyl donation pH (pH at and above which nitroxyl is donated) (Nitroxyl donation pH): about 3
Effect on neutrophil infiltration into renal tissue (rat renal tissue): contributed to neutrophil infiltration into the tissue
